Data reported in US20220289679A1, “HETEROCYCLIC COMPOUND” (Takeda Pharmaceutical Company Limited, priority 2019, published 2022).

Each compound was assayed against T1, human GCS (glucosylceramide synthase) (Homo sapiens, UniProt Q16739) (assay: Glucosylceramide Synthase (GCS) Assay). Conditions: test compound 10 μM; microsome fraction of Expi293F cells expressing human GCS; 1.7 μM UDP-glucose, 3 μM C8 ceramide; room temperature 60 min; C8 glucosylceramide by Rapidfire MS/MS; read-out: GCS enzyme inhibitory rate at 10 μM (%).
T1 construct: made in house; host or cells: Expi293F cells (transient expression; microsome fraction)
T1 sequence (Q16739 1-394): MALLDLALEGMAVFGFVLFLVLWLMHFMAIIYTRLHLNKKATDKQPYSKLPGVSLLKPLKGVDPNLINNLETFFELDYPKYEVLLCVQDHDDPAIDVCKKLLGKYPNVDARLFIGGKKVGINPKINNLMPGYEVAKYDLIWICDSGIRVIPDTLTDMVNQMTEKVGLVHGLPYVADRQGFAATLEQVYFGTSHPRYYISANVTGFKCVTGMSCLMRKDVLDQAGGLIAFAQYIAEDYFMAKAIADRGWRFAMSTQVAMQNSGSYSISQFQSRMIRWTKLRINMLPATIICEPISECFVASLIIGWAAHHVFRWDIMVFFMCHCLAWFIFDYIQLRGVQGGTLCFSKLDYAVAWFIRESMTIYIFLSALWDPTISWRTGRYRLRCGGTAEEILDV
Assay type: biochemical
How it was run: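 Test compounds were run at a final 10 μM against liposomal C8 ceramide (3 μM) and UDP-glucose at its Km (1.7 μM). Human GCS came as microsomes from transfected Expi293F cells, incubated 60 min at room temperature, pH 7.5. Product measured by RapidFire MS/MS; 0% and 100% inhibition were DMSO and no-enzyme wells.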

SMILES | inhibition at 10 µM [%]
CC(C)(O)c1ccc(NC(=O)c2cn(CC(F)F)nc(-c3ccccc3OCC(F)F)c2=O)cc1 [Example 179, 6-[2-(2,2-difluoroethoxy)phenyl]-2-(2,2-difluoroethyl)-N-[4-(2-hydroxypropan-2-yl)phenyl]-5-oxo-2,5-dihydropyridazine-4-carboxamide] | 99
CC(C)(O)c1ccc(NC(=O)c2cn(CC3COC3)nc(-c3ccccc3OCC(F)F)c2=O)cc1 [Example 180, 6-[2-(2,2-difluoroethoxy)phenyl]-N-[4-(2-hydroxypropan-2-yl)phenyl]-2-[(oxetan-3-yl)methyl]-5-oxo-2,5-dihydropyridazine-4-carboxamide] | 96
O=C(Nc1ccc(F)cc1F)c1cn(CC2COC2)nc(-c2ccccc2OCC(F)F)c1=O [Example 181, 6-[2-(2,2-difluoroethoxy)phenyl]-N-(2,4-difluorophenyl)-2-[(oxetan-3-yl)methyl]-5-oxo-2,5-dihydropyridazine-4-carboxamide] | 97
O=C(Nc1ccc(F)cc1F)c1cn(C2COC2)nc(-c2ccccc2OCC(F)F)c1=O [Example 182, 6-[2-(2,2-difluoroethoxy)phenyl]-N-(2,4-difluorophenyl)-2-(oxetan-3-yl)-5-oxo-2,5-dihydropyridazine-4-carboxamide] | 90
CC(C)(O)c1ccc(NC(=O)c2cn(C3COC3)nc(-c3ccccc3OCC(F)F)c2=O)cc1 [Example 183] | 100
O=C(Nc1ccc(C(O)(C(F)F)C(F)F)cc1)c1cn(C2COC2)nc(-c2ccccc2OCC(F)F)c1=O [Example 184, 6-[2-(2,2-difluoroethoxy)phenyl]-2-(oxetan-3-yl)-5-oxo-N-[4-(1,1,3,3-tetrafluoro-2-hydroxypropan-2-yl)phenyl]-2,5-dihydropyridazine-4-carboxamide] | 100
Cn1cc(C(=O)Nc2ccc(C(F)F)cc2)c(=O)c(-c2ccccc2OCC(F)F)n1 [Example 185, 6-[2-(2,2-difluoroethoxy)phenyl]-N-[4-(difluoromethyl)phenyl]-2-methyl-5-oxo-2,5-dihydropyridazine-4-carboxamide] | 79
O=C(Nc1ccc(C(O)(C(F)F)C(F)F)nc1)c1cn(CC(F)F)nc(-c2ccccc2OCC(F)F)c1=O [Example 186, 6-[2-(2,2-difluoroethoxy)phenyl]-2-(2,2-difluoroethyl)-5-oxo-N-[6-(1,1,3,3-tetrafluoro-2-hydroxypropan-2-yl)pyridin-3-yl]-2,5-dihydropyridazine-4-carboxamide] | 100
O=C(Nc1ccc(C(O)(C(F)F)C(F)F)nc1)c1cn(C2COC2)nc(-c2ccccc2OCC(F)F)c1=O [Example 187, 6-[2-(2,2-difluoroethoxy)phenyl]-2-(oxetan-3-yl)-5-oxo-N-[6-(1,1,3,3-tetrafluoro-2-hydroxypropan-2-yl)pyridin-3-yl]-2,5-dihydropyridazine-4-carboxamide] | 100
O=C(Nc1ccc(C(O)(C(F)F)C(F)F)nc1)c1cn(CC2COC2)nc(-c2ccccc2OCC(F)F)c1=O [Example 188, 6-[2-(2,2-difluoroethoxy)phenyl]-2-[(oxetan-3-yl)methyl]-5-oxo-N-[6-(1,1,3,3-tetrafluoro-2-hydroxypropan-2-yl)pyridin-3-yl]-2,5-dihydropyridazine-4-carboxamide] | 99
O=C(Nc1ccc(C(O)(C(F)F)C(F)F)nc1)c1cn(C2CC2)nc(-c2ccccc2OCC(F)F)c1=O [Example 189, 2-cyclopropyl-6-[2-(2,2-difluoroethoxy)phenyl]-5-oxo-N-[6-(1,1,3,3-tetrafluoro-2-hydroxypropan-2-yl)pyridin-3-yl]-2,5-dihydropyridazine-4-carboxamide] | 100
Cn1cc(C(=O)Nc2ccc(C(C)(C)C#N)cc2)c(=O)c(-c2ccccc2OCC(F)(F)F)n1 [Example 190, N-[4-(2-cyanopropan-2-yl)phenyl]-2-methyl-5-oxo-6-[2-(2,2,2-trifluoroethoxy)phenyl]-2,5-dihydropyridazine-4-carboxamide] | 100
CC(C)(C#N)c1ccc(NC(=O)c2cn(C3COC3)nc(-c3ccccc3OCC(F)F)c2=O)cc1 [Example 191, N-[4-(2-cyanopropan-2-yl)phenyl]-6-[2-(2,2-difluoroethoxy)phenyl]-2-(oxetan-3-yl)-5-oxo-2,5-dihydropyridazine-4-carboxamide] | 100
CC(C)(C#N)c1ccc(NC(=O)c2cn(C3CC3)nc(-c3ccccc3OCC(F)F)c2=O)cc1 [Example 192, N-[4-(2-cyanopropan-2-yl)phenyl]-2-cyclopropyl-6-[2-(2,2-difluoroethoxy)phenyl]-5-oxo-2,5-dihydropyridazine-4-carboxamide] | 100
CCOC(=O)c1ccc(NC(=O)c2cc(C)nn(-c3ccccc3OCC(F)F)c2=O)cc1 [Example 194, ethyl 4-({2-[2-(2,2-difluoroethoxy)phenyl]-6-methyl-3-oxo-2,3-dihydropyridazine-4-carbonyl}amino)benzoate] | 97
CC(=O)c1cc(C(=O)Nc2ccc(OC(F)F)cc2)c(=O)n(-c2ccccc2OCC(F)(F)F)n1 [Example 197, 6-acetyl-N-[4-(difluoromethoxy)phenyl]-3-oxo-2-[2-(2,2,2-trifluoroethoxy)phenyl]-2,3-dihydropyridazine-4-carboxamide] | 99
CCOC(=O)c1cc(C(=O)Nc2ccc(OC(F)F)cc2)c(=O)n(-c2ccccc2OCC(F)(F)F)n1 [Example 198, ethyl 5-{[4-(difluoromethoxy)phenyl]carbamoyl}-6-oxo-1-[2-(2,2,2-trifluoroethoxy)phenyl]-1,6-dihydropyridazine-3-carboxylate] | 98
CC(C)(O)c1cc(C(=O)Nc2ccc(OC(F)F)cc2)c(=O)n(-c2ccccc2OCC(F)(F)F)n1 [Example 200, N-[4-(difluoromethoxy)phenyl]-6-(2-hydroxypropan-2-yl)-3-oxo-2-[2-(2,2,2-trifluoroethoxy)phenyl]-2,3-dihydropyridazine-4-carboxamide] | 99
CC(C)(O)c1cc(C(=O)Nc2ccc(C(C)(C)C#N)cc2)c(=O)n(-c2ccccc2OCC(F)(F)F)n1 [Example 201, N-[4-(2-cyanopropan-2-yl)phenyl]-6-(2-hydroxypropan-2-yl)-3-oxo-2-[2-(2,2,2-trifluoroethoxy)phenyl]-2,3-dihydropyridazine-4-carboxamide] | 100
CC(C)(O)c1ccc(NC(=O)c2cc(C(C)(C)O)nn(-c3ccccc3OCC(F)(F)F)c2=O)cc1 [Example 202, 6-(2-hydroxypropan-2-yl)-N-[4-(2-hydroxypropan-2-yl)phenyl]-3-oxo-2-[2-(2,2,2-trifluoroethoxy)phenyl]-2,3-dihydropyridazine-4-carboxamide] | 99
C=C(C)c1ccc(NC(=O)c2cc(C(C)(C)O)nn(-c3ccccc3OCC(F)(F)F)c2=O)cc1 [Example 203, 6-(2-hydroxypropan-2-yl)-3-oxo-N-[4-(prop-1-en-2-yl)phenyl]-2-[2-(2,2,2-trifluoroethoxy)phenyl]-2,3-dihydropyridazine-4-carboxamide] | 99
